Converted amounts (≈) assume the structure as drawn.
Target: T1, α-amylase
T1 construct: gene AMY2
Assay: DNS starch hydrolysis assay, absorbance at […] nm
Format: biochemical

CCCN(CCC)S(=O)(=O)c1ccc(-c2nnc(SCCCN3C(=O)c4ccccc4C3=O)o2)cc1 [compound 1, 4–(5-(3–(1,3-Dioxoisoindolin-2-yl)propylthio)-1,3,4-oxadiazol-2-yl)-N,N-dipropylbenzenesulfonamide]
IC50 value: 92.23 ± 0.23 µg/mL (≈ 174 µM)

CCCN(CCC)S(=O)(=O)c1ccc(-c2nnc(SCCCCN3C(=O)c4ccccc4C3=O)o2)cc1 [compound 2, 4–(5-(4–(1,3-Dioxoisoindolin-2-yl)butylthio)-1,3,4-oxadiazol-2-yl)-N,N-dipropylbenzenesulfonamide]
IC50 value: 76.92 ± 0.19 µg/mL (≈ 142 µM)
